Measured values taken from ChEMBL document CHEMBL4680277, “Targeting Metabolism of Extracellular Nucleotides via Inhibition of Ectonucleotidases CD73 and CD39” (J Med Chem, 2020).

Assays:
5'-nucleotidase [1] = molecular target: T1, 5'-nucleotidase (Homo sapiens, UniProt P21589); assay: Inhibition of human C-terminal 6His-tagged CD73 (1 to 547 residues) expressed in HEK293F cells using 2 uM AMP as substrate by rapidfire mass spectrometry assay
[2] = Inhibition of human FLAG-tagged CD73 Thr376Ala mutant (1 to 552 residues) assessed as reduction in adenosine formation using AMP as substrate preincubated for 10 mins followed by substrate addition and measured after 30 mins by rapidfire mass spectrometry assay
[3] = molecular target: T2, Ectonucleoside triphosphate diphosphohydrolase 1 (Rattus norvegicus, UniProt P97687); assay: Inhibition of rat CD39 expressed in CHO cells using ATP as substrate incubated for 10 mins by UV absorbance method; format: cell-based
T2 sequence (P97687 whole entry): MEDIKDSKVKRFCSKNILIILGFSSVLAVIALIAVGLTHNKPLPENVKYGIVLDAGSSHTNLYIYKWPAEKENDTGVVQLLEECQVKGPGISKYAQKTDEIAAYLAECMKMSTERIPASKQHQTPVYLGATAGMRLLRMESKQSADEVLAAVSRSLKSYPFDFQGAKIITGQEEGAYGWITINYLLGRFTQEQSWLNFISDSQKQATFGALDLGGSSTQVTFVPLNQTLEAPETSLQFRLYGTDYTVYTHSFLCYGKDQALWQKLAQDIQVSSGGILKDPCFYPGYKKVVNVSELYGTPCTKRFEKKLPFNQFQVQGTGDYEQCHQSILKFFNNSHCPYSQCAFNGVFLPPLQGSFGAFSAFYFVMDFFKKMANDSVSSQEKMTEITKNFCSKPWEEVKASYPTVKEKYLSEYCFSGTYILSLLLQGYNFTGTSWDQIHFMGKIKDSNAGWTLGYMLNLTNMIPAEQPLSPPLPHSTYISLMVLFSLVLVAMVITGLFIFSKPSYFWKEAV

[4] = Inhibition of rat NTPDase3 expressed in CHO cells using ATP as substrate incubated for 10 mins by UV absorbance method; format: cell-based
[5] = molecular target: T3, Ectonucleoside triphosphate diphosphohydrolase 2 (Rattus norvegicus, UniProt O35795); assay: Inhibition of rat NTPDase2 expressed in CHO cells using ATP as substrate incubated for 10 mins by UV absorbance method; format: cell-based
T3 sequence (O35795 whole entry): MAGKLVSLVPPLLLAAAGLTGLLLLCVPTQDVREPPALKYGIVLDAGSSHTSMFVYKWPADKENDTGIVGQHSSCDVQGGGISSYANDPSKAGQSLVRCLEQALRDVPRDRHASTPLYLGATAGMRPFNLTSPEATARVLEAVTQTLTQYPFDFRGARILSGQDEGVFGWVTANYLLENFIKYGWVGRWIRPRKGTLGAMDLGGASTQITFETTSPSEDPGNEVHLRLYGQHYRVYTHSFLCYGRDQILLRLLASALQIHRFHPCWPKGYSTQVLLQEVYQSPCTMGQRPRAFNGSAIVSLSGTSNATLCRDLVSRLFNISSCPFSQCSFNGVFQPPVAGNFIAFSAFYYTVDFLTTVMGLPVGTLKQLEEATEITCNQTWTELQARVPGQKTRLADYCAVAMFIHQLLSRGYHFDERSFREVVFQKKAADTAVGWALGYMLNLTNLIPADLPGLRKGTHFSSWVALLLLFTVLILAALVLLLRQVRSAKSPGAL

5'-nucleotidase [6] = molecular target: T1, 5'-nucleotidase; assay: Inhibition of human CD73 expressed in CHO cells using AMP as substrate preincubated for 10 mins followed by substrate addition and measured every minute for 10 to 20 mins by PNP coupled enzyme assay; format: cell-based
Rattus norvegicus = organism: Rattus norvegicus; assay: Inhibition of ecto-ATPase in Wistar rat cardiac synaptosomes assessed as reduction in ATP hydrolysis at 100 uM preincubated for 10 min followed by ATP addition and measured after 6 mins relative to control; format: subcellular; settings: Heart, time 16.0 min
5'-nucleotidase [7] = molecular target: T1, 5'-nucleotidase; assay: Inhibition of human C-terminal 6His-tagged CD73 ( Trp27 to Lys547 residues) expressed in CHO cells using CMP as substrate incubated for 20 mins by malachite Green assay
[8] = molecular target: T4, Ectonucleoside triphosphate diphosphohydrolase 1 (Homo sapiens, UniProt P49961); assay: Inhibition of human CD39 using ATP as substrate preincubated for 3 mins followed by substrate addition and measured after 10 to 15 mins by Malachite green reagent based assay
T4 sequence (P49961 whole entry): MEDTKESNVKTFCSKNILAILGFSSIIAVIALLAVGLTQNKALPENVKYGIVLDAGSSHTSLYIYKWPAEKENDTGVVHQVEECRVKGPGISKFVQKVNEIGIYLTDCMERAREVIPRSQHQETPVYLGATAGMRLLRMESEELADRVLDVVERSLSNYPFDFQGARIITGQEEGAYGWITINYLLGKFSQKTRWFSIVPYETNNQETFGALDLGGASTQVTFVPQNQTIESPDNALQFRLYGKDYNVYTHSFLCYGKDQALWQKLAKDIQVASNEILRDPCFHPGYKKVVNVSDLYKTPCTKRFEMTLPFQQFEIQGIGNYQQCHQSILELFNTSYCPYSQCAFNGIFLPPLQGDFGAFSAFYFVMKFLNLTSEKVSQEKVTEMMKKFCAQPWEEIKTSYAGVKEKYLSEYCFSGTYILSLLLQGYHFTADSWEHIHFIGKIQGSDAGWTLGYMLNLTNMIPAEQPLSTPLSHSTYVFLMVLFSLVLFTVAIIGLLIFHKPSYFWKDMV

5'-nucleotidase [9] = molecular target: T1, 5'-nucleotidase; assay: Inhibition of CD73 in human serum using 13C5-15N5-AMP as substrate preincubated for 60 mins followed by substrate addition and measured after 15 mins by LC/MS based assay; format: cell-free
5'-nucleotidase [10] = molecular target: T1, 5'-nucleotidase; assay: Inhibition of CD73 in human melanoma 1539 cells using AMP substrate by capillary electrophoresis assay; format: cell-based, NW1539
5'-nucleotidase [11] = molecular target: T1, 5'-nucleotidase; assay: Inhibition of recombinant human CD73 using AMP as substrate incubated for 120 mins by CellTiter-Glo assay
5'-nucleotidase [12] = molecular target: T5, 5'-nucleotidase (Rattus norvegicus, UniProt P21588); assay: Inhibition of rat CD73 expressed in baculovirus infected insect cells using AMP substrate by capillary electrophoresis assay
T5 sequence (P21588 whole entry): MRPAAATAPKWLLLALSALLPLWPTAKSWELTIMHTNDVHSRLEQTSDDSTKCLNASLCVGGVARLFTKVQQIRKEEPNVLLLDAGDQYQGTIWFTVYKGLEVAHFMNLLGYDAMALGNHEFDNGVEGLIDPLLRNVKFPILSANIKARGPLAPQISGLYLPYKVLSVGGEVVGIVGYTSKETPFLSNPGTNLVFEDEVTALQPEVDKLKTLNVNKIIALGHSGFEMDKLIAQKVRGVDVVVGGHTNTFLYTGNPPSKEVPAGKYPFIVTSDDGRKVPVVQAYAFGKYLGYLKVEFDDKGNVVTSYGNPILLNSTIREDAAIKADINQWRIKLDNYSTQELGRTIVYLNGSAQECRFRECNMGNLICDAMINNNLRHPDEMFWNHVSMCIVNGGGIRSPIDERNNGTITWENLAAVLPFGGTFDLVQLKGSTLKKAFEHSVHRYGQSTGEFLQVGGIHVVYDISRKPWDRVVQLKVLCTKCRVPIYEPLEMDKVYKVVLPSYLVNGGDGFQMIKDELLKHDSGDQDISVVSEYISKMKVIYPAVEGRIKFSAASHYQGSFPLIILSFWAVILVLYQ

5'-nucleotidase [13] = molecular target: T1, 5'-nucleotidase; assay: Inhibition of recombinant human CD73 using AMP as substrate incubated for 90 mins by malachite green colorimetric assay
5'-nucleotidase [14] = molecular target: T1, 5'-nucleotidase; assay: Inhibition of human C-terminal His6-tagged CD73 expressed in HEK293F cells using [15N]5-AMP as substrate preincubated for 1 hr followed by substrate addition and measured after 8 mins by MS/MS assay
[15] = Half-life in human at 25 mg, iv infusion dosed once every 2 weeks; format: ADME, organism-based; settings: in vivo
[16] = molecular target: T4, Ectonucleoside triphosphate diphosphohydrolase 1; assay: Inhibition of human CD39 using ATP as substrate preincubated for 3 mins followed by substrate addition and measured after 10 to 15 mins by Dixon and Cornish-Bowden plot analysis; settings: read-out: Ki(app)

T1 sequence (P21589 whole entry, the tested form may be a part): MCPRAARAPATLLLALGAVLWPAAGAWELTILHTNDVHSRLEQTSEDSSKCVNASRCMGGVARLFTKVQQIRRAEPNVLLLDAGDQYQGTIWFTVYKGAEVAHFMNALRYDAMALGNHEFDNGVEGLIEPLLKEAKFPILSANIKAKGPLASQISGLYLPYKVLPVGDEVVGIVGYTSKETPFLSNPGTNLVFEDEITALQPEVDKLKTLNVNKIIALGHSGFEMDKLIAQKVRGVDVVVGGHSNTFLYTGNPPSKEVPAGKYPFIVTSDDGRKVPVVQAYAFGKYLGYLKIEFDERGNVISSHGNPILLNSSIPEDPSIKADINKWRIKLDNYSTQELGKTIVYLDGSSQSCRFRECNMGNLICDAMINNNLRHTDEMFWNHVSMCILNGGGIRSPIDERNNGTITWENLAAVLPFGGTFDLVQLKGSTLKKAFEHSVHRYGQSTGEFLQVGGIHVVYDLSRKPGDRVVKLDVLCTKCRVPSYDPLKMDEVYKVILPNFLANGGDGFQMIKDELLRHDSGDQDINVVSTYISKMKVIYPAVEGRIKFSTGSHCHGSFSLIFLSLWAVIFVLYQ

| Structure (SMILES) | IC50 (5'-nucleotidase [1]) [nM] | other results |
| --- | --- | --- |
| O=c1[nH]cc(-c2cc([C@H]3C[C@@H]3C(F)F)cnn2)c(=O)[nH]1 | < 62 |  |
| CC(F)(F)[C@H]1C[C@@H]1c1cc(-c2c[nH]c(=O)[nH]c2=O)nnc1Cl | < 62 |  |
| O=S1(=O)NC(Nc2cccc3[nH]ncc23)=Nc2c1cc(Cl)c(F)c2O |  | IC50 [2]: 15 nM |
| Nc1c(S(=O)(=O)O)cc(Nc2ccc(Nc3nc(Cl)nc(Nc4ccc(S(=O)(=O)O)c(S(=O)(=O)O)c4)n3)c(S(=O)(=O)O)c2)c2c1C(=O)c1ccccc1C2=O |  | Ki [3]: 20000 nM; Ki [4]: 1100 nM; Ki [5]: 24200 nM |
| COc1nnc(-c2c[nH]c(=O)[nH]c2=O)cc1C1CCC1 | < 62 |  |
| C[C@@H](Nc1nc(Cl)nc2c1ncn2[C@@H]1O[C@H](CS(=O)(=O)CP(=O)(O)O)[C@@H](O)[C@H]1O)c1ccccc1 |  | IC50 (5'-nucleotidase [6]): < 10 nM |
| CC(C)[C@H]1C[C@@H]1c1cc(-c2c[nH]c(=O)[nH]c2=O)nnc1Cl | < 62 |  |
| CC(C)[C@H]1C[C@@H]1c1cc(-c2c[nH]c(=O)[nH]c2=O)nnc1C#N | < 62 |  |
| COc1nnc(-c2c[nH]c(=O)[nH]c2=O)cc1C1CC(C)(C)C1 | < 62 |  |
| CC[C@H]1C[C@@H]1c1cc(-c2c[nH]c(=O)[nH]c2=O)nnc1C | < 62 |  |
| Cc1cc(-c2ccc(/N=N/c3ccc4c(S(=O)(=O)O)cc(S(=O)(=O)O)c(N)c4c3O)c(C)c2)ccc1/N=N/c1ccc2c(S(=O)(=O)O)cc(S(=O)(=O)O)c(N)c2c1O |  | inhibition (Rattus norvegicus): 97.2% |
| CC[C@H]1C[C@@H]1c1cc(-c2c[nH]c(=O)[nH]c2=O)nnc1C#N | < 62 |  |
| N#Cc1nnc(-c2c[nH]c(=O)[nH]c2=O)cc1C1CCC1 | < 62 |  |
| O=c1[nH]cc(-c2cc([C@H]3CC3(F)F)c(Cl)nn2)c(=O)[nH]1 | < 62 |  |
| CCOC(=O)C(OC[C@H]1C[C@@H](n2nnc3c(NC[C@@H]4CCOC4)nc(Cl)nc32)[C@H](O)[C@@H]1O)P(=O)(O)O (stereo partly specified) |  | IC50 (5'-nucleotidase [7]): < 100 nM |
| O=c1[nH]cc(-c2cc(C3CCCC3)c(Cl)nn2)c(=O)[nH]1 | < 62 |  |
| Nc1c(S(=O)(=O)O)cc(Nc2ccc(Cl)cc2)c2c1C(=O)c1ccccc1C2=O |  | Ki ([3]; cho): 15700 nM; Ki [4]: 16400 nM; Ki ([5]; cho): 18000 nM |
| NC(=O)c1cc2c(c(Cl)c1O)NCCOCCCCCc1cc(cc3[nH]ccc13)NS2(=O)=O |  | IC50 [2]: 4 nM |
| Cc1nnc(-c2c[nH]c(=O)[nH]c2=O)cc1[C@H]1C[C@@H]1CC(C)C | < 62 |  |
| Cc1nnc(-c2c[nH]c(=O)[nH]c2=O)cc1[C@H]1C[C@@H]1C(C)(F)F | < 62 |  |

| Structure (SMILES) | IC50 (5'-nucleotidase [1]) [nM] | other results |
| --- | --- | --- |
| CCCCSc1nc2c(N)ncnc2n1[C@@H]1O[C@H](COP(=O)(O)O)[C@@H](O)[C@H]1O |  | IC50 [8]: 35000 nM |
| O=c1[nH]cc(-c2cc(C3CC(F)(F)C3)c(Cl)nn2)c(=O)[nH]1 | < 62 |  |
| O=c1[nH]cc(-c2cc(C3CC3)c(Cl)nn2)c(=O)[nH]1 | < 62 |  |
| COc1nnc(-c2c[nH]c(=O)[nH]c2=O)cc1C1CCC(F)(F)C1 (stereo unspecified) | < 62 | IC50 (5'-nucleotidase [1]; hek293f): < 62 nM |
| N#Cc1nnc(-c2c[nH]c(=O)[nH]c2=O)cc1C1CCCC1 | < 62 |  |
| COc1nnc(-c2c[nH]c(=O)[nH]c2=O)cc1C1CC(F)(F)C1 | < 62 |  |
| Cc1nnc(-c2c[nH]c(=O)[nH]c2=O)cc1[C@H]1C[C@@H]1C(F)F | < 62 | EC50 (5'-nucleotidase [9]): 51 nM |
| COc1nnc(-c2c[nH]c(=O)[nH]c2=O)cc1C1CCCCC1 | < 62 |  |
| Cc1nnc(-c2c[nH]c(=O)[nH]c2=O)cc1[C@H]1C[C@@H]1CCF | < 62 |  |
| Nc1ncnc2c1ncn2[C@@H]1O[C@H](COP(=O)(O)CP(=O)(O)O)[C@@H](O)[C@H]1O [PHOSPHOMETHYLPHOSPHONIC ACID ADENOSYL ESTER] |  | Ki (5'-nucleotidase [10]): 510 nM; IC50 (5'-nucleotidase [11]): 2500 nM; Ki (5'-nucleotidase [12]): 870 nM; IC50 (5'-nucleotidase [6]): 50 nM; IC50 (5'-nucleotidase [13]): 1100 nM; IC50 (5'-nucleotidase [14]): 60 nM |
| O=c1[nH]cc(-c2cc(C3CCC3)c(Cl)nn2)c(=O)[nH]1 | < 62 |  |
| C[C@H](Nc1cc(Cl)nc2c1cnn2[C@@H]1O[C@H](COP(=O)(O)CP(=O)(O)O)[C@@H](O)[C@H]1O)c1ccccc1F |  | half-life [15]: 74 h |
| CC1(C)CC(c2cc(-c3c[nH]c(=O)[nH]c3=O)nnc2Cl)C1 | < 62 |  |
| CCCCSc1nc2c(N)ncnc2n1[C@@H]1O[C@H](COP(=O)(O)OP(=O)(O)O)[C@@H](O)[C@H]1O |  | Ki [16]: 900 nM; IC50 [8]: 28000 nM |
| N#Cc1nnc(-c2c[nH]c(=O)[nH]c2=O)cc1[C@@H]1CC1(F)F | < 62 |  |
| N#Cc1nnc(-c2c[nH]c(=O)[nH]c2=O)cc1[C@H]1C[C@@H]1C(F)F | < 62 |  |
| N#Cc1nnc(-c2c[nH]c(=O)[nH]c2=O)cc1C1CC1 | < 62 |  |
| O=c1[nH]cc(-c2cc([C@H]3C[C@@H]3C(F)F)c(Cl)nn2)c(=O)[nH]1 | < 62 |  |
| COc1nnc(-c2c[nH]c(=O)[nH]c2=O)cc1C1CC1 | < 62 |  |
